The record followed here is patent US20180094250A1, “Methods And Compositions For PCR” (Life Technologies Coroporation, priority 2007, published 2018).

Holding throughout (assay type): biochemical
One data set deals with cDNA (human). The data set is described as follows: PCR Residual Activity Assay with three primer sets, agarose gel. The conditions noted are these: preincubation 25° C. for 60 min, 40 cycles. The procedure:
Under these conditions, if hot-start techniques were not employed, primer dimers tend to form in the PCR reaction mix.
This example includes reactions which is referred to as PCR Residual Activity Assay that involved three set of primers respectively. The primer sets are commercially available from Applied Biosystems, Foster City, Calif. Specifically, Set 1 is Hs00378363_g1; Set 2, Hs00399572_m1 and Set 3, Hs00372859_m1.
The components are listed below:
50 Unit/ml DNA polymerase
and 0.8 ng/μl cDNA (human)
Due to the needs of the individual polymerases, 1× buffer and 1×MgCl2 are different as stated below:
The cycling conditions for ECA001 are listed below:
The cycling conditions for ECA001-Gold:
The cycling conditions for AmpliTaq:
The cycling conditions for AmpliTaq Gold:
Each reaction was run in duplication.

Data set [1] is described as follows: exonuclease to polymerase activity ratio after modification and re-activation. The conditions noted are these: 5′-3′ exonuclease activity. The text has this: (See details in Example 5)
It is true that lysine is a common amino acid that can be found in many enzymes.

A short description of data set [2]: polymerase activity at room temperature relative to peak activity. The text has this: Pol B DNA polymerases enzymes have relative low polymerase activity at room temperature, while Taq DNA polymerase still retains >5% of its peak activity (FIG. 4).

Bounds are passed on as bounds.

With “AmpliTaq Gold: commercial hot-start modified Taq polymerase used as comparator”, the “non-specific/primer-dimer products versus specific products” value with cDNA (human) was “mostly the specific products”.

Consider AmpliTaq: AmpliTaq DNA polymerase, for which, in the data set on cDNA (human), the “non-specific/primer-dimer products versus specific products” value is recorded as “mostly non-specific/primer-dimer products”. In addition, in data set [1], the “exonuclease to polymerase activity ratio” value is given as “has been changed”.

For “Taq DNA polymerase: Thermus aquaticus Pol I (Taq DNA polymerase)”, the “polymerase activity retained, of its peak activity” value in data set [2] is recorded as > 5%.
